Experimental data as given in publication PMC6882824, “Engineering of chimeric peptides as antagonists for the G protein-coupled receptor, RXFP4” (Scientific Reports, 2019).
Where two headings read alike, the source gives them in different places. Bridge positions count the residues as written; N and C are the ends. Peptide text beside a SMILES is read from it. I, II: the chains in the order shown.

Tests used:
RXFP3 [1] = molecular target: T1, RXFP3 (Homo sapiens, UniProt Q9NSD7); assay: Competition binding in CHO-K1-RXFP3 cells (Eu-H3B1-22R)
T1 construct: expressed in transfected cells; host or cells: CHO-K1 (ATCC), stably transfected
T1 sequence (Q9NSD7 1-469): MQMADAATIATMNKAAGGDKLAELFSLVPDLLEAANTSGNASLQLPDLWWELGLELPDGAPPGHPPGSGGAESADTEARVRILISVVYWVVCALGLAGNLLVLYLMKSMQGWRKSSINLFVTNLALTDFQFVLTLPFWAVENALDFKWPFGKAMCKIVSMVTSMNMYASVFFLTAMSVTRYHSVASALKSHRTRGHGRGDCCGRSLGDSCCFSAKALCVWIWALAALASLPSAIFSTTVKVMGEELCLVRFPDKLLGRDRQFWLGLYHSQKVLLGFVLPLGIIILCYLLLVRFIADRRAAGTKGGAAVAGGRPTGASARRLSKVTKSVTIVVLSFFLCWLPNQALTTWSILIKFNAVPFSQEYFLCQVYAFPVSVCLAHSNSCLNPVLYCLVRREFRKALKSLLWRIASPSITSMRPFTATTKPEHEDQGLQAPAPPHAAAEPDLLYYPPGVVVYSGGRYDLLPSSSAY
Description: (§1) Chinese hamster ovary CHO-K1 cells (sourced from American Type Culture Collection (ATCC), Maryland, USA) stably transfected with RXFP3[33] or RXFP4[9] were plated out onto precoated poly-L-lysine 96-well view plates at a density of 50 000 cells per well. Medium was aspirated off and the cells were washed with phosphate-buffered saline (PBS) before competition binding assays were performed with 5 nM Eu-H3B1–22R[34] (RXFP3 ligand) or 5 nM Eu-DTPA-mINSL5[9] (RXFP4 ligand) as previously described. Competition binding curves were performed in triplicate and each experiment was performed independently at least three times. Fluorescent measurements were carried out on a BMG POLARstar plate reader (BMG Labtech, Melbourne, Australia. Pooled data are presented as mean ± S.E of specific binding and are fitted using one-site binding curve in GraphPad Prism version 8 (GraphPad Inc., San Diego, USA). Statistical analyses were conducted using one-way analysis of variance with uncorrected Fisher’s least significant difference (LSD) post-hoc analysis in GraphPad Prism version 8.

RXFP3 [2] = molecular target: T1, RXFP3; assay: cAMP agonist assay (inhibition of forskolin-induced cAMP, pCRE β-galactosidase reporter) in CHO-K1-RXFP3 cells; assay type: cell-based; details: CHO-K1-RXFP3 cells, inhibition of 5 µM forskolin-induced cAMP, 6 hours; mean ± SEM, n in cell
Description: (§2) The peptides were tested for their ability to inhibit forskolin induced cAMP activity in CHO-K1-RXFP3 or CHO-K1-RXFP4 cells transfected with a pCRE (cAMP Response Element) β-galactosidase reporter plasmid as previously described[9],[34]. For agonist assays cells were stimulated with forskolin (5 µM for RXFP3, 1 µM for RXFP4) plus or minus increasing concentrations of each peptide for 6 hours. For antagonist assays cells were stimulated with forskolin as in agonist assays plus increasing concentrations of each peptide for 10 minutes followed by stimulation with agonist at an ~EC80 concentration for a further 6 hours (10 nM Analogue 2 for RXFP3 and 16.6 nM Analogue 13 for RXFP4). Each peptide was tested in triplicate and each experiment was performed independently at least three times. Agonist data was expressed as the % Forskolin activity whereby 100% was defined as Forskolin alone and 0% as maximum agonist stimulation (1 µM Analogue 2 for RXFP3 and 1 µM Analogue 13 for RXFP4). […] Data were analysed and plotted using GraphPad PRISM 8 and are expressed as the mean ± SEM of the pooled data. Statistical analysis was conducted using one-way ANOVA with Uncorrected Fisher’s LSD post-hoc analysis in GraphPad Prism version 8.

RXFP3 [3] = molecular target: T1, RXFP3; assay: cAMP antagonist assay against 10 nM analogue 2 in CHO-K1-RXFP3 cells; assay type: cell-based; details: for Emax: SEM, read-out: RXFP3 Emax (antagonist efficacy)
Description: as §2

RXFP4 [4] = molecular target: T2, RXFP4 (Homo sapiens, UniProt Q8TDU9); assay: Competition binding in CHO-K1-RXFP4 cells (Eu-DTPA-mINSL5); parameters: expressed in transfected cells; host or cells: CHO-K1 (ATCC), stably transfected
Description: as §1

RXFP4 [5] = molecular target: T2, RXFP4; assay: cAMP agonist assay (inhibition of forskolin-induced cAMP, pCRE β-galactosidase reporter) in CHO-K1-RXFP4 cells; assay type: cell-based; parameters: expressed in transfected cells; host or cells: CHO-K1 (ATCC), stably transfected; details: CHO-K1-RXFP4 cells, inhibition of 1 µM forskolin-induced cAMP, 6 hours; mean ± SEM, n in cell
Description: as §2

RXFP4 [6] = molecular target: T2, RXFP4; assay: cAMP antagonist assay against 16.6 nM analogue 13 in CHO-K1-RXFP4 cells; assay type: cell-based; parameters: expressed in transfected cells; host or cells: CHO-K1 (ATCC), stably transfected; details: for Emax: SEM, read-out: RXFP4 Emax (antagonist efficacy)
Description: as §2

[7] = CHO-K1 cells stably transfected with RXFP3, competition with 5 nM Eu-H3B1-22R, read-out: RXFP3 Binding Ki
[8] = CHO-K1-RXFP3 cells, peptide 10 minutes, then 10 nM analogue 2 for 6 hours, 5 µM forskolin, mean ± SEM, read-out: RXFP3 Antagonist potency pIC50 (converted)
[9] = CHO-K1 cells stably transfected with RXFP4, competition with 5 nM Eu-DTPA-mINSL5, read-out: RXFP4 Binding Ki
[10] = CHO-K1-RXFP4 cells, block of 16.6 nM analogue 13, read-out: RXFP4 Antagonist potency IC50

T2 sequence (Q8TDU9 whole entry): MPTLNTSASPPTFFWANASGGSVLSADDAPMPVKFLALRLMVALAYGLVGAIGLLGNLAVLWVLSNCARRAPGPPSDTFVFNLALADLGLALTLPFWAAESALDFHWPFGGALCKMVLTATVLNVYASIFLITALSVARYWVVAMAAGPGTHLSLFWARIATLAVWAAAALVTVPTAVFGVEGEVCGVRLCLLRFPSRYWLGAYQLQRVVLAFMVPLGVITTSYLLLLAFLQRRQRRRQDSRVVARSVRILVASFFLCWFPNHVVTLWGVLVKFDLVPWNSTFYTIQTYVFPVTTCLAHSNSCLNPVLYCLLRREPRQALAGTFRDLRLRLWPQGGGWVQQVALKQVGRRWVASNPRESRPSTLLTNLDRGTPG

CC[C@H](C)[C@@H]1NC(=O)[C@H](Cc2ccccc2)NC(=O)[C@H](CCC(=O)O)NC(=O)[C@H](CCCNC(=N)N)NC(=O)CNC(=O)[C@@H](NC(=O)[C@H](CC(C)C)NC(=O)[C@H](CCCNC(=N)N)NC(=O)[C@@H](NC(=O)CNC(=O)[C@H](Cc2ccc(O)cc2)NC(=O)[C@@H]2CCCN2C(=O)[C@H](C)NC(=O)[C@H](C)NC(=O)[C@@H](N)CCCNC(=N)N)C(C)C)CSSC[C@H](N)C(=O)N[C@@H]([C@@H](C)O)C(=O)N[C@@H](CC(=O)O)C(=O)NCC(=O)N[C@@H](C)C(=O)N[C@@H](CO)C(=O)N[C@@H](CCSC)C(=O)N[C@@H](CCCCN)C(=O)N[C@@H](CC(=O)O)C(=O)N[C@@H](CC(C)C)C(=O)N[C@@H](CO)C(=O)N[C@@H](C)C(=O)N[C@@H](CC(C)C)C(=O)N[C@H](C(=O)O)CSSC[C@@H](C(=O)N[C@@H](CCCNC(=N)N)C(=O)O)NC(=O)[C@H]([C@@H](C)O)NC(=O)[C@H](Cc2ccccc2)NC(=O)[C@H]([C@@H](C)CC)NC(=O)[C@H](C(C)C)NC(=O)[C@H]([C@@H](C)O)NC(=O)[C@H](CCCNC(=N)N)NC1=O [Analogue 17] (I: H-RAAPYGVRLCGREFIRTVIFTCR-OH / II: H-CTDGASMKDLSALC-OH; disulfide I:10-II:1, I:22-II:14)
Ki (RXFP3 [1]): 19.1 nM
RXFP3 Activity pEC50 (RXFP3 [2]): No activity (3)
IC50 (RXFP3 [3]): > 10000 nM
Emax (RXFP3 [3]): 34.8 ± 0.9%
Ki (RXFP4 [4]): 40.7 nM
RXFP4 Activity pEC50 (RXFP4 [5]): Weak partial agonist (4)
IC50 (RXFP4 [6]): 34.7 nM
Emax (RXFP4 [6]): 36 ± 10%

CC[C@H](C)[C@@H]1NC(=O)[C@H](Cc2ccccc2)NC(=O)[C@H](CCC(=O)O)NC(=O)[C@H](CC(C)C)NC(=O)CNC(=O)[C@@H](NC(=O)[C@H](CC(C)C)NC(=O)[C@H](CCCNC(=N)N)NC(=O)[C@@H](NC(=O)CNC(=O)[C@H](Cc2ccc(O)cc2)NC(=O)[C@@H]2CCCN2C(=O)[C@H](C)NC(=O)[C@H](C)NC(=O)[C@@H](N)CCCNC(=N)N)C(C)C)CSSC[C@H](N)C(=O)N[C@@H]([C@@H](C)O)C(=O)N[C@@H](CC(=O)O)C(=O)NCC(=O)N[C@@H](C)C(=O)N[C@@H](CO)C(=O)N[C@@H](CCSC)C(=O)N[C@@H](CCCCN)C(=O)N[C@@H](CC(=O)O)C(=O)N[C@@H](CC(C)C)C(=O)N[C@@H](CO)C(=O)N[C@@H](C)C(=O)N[C@@H](CC(C)C)C(=O)N[C@H](C(=O)O)CSSC[C@@H](C(=O)N[C@@H](CCCNC(=N)N)C(=O)O)NC(=O)[C@H]([C@@H](C)O)NC(=O)[C@H](Cc2ccccc2)NC(=O)[C@H]([C@@H](C)CC)NC(=O)[C@H](C(C)C)NC(=O)[C@H](C)NC(=O)[C@H](CCCNC(=N)N)NC1=O [Analogue 18] (I: H-RAAPYGVRLCGLEFIRAVIFTCR-OH / II: H-CTDGASMKDLSALC-OH; disulfide I:10-II:1, I:22-II:14)
Ki (RXFP3 [1]; [7]): 25.7 nM
RXFP3 Activity pEC50 (RXFP3 [2]): No activity (3)
IC50 (RXFP3 [3]; [8]): > 10000 nM
Emax (RXFP3 [3]): 47 ± 7.3%
Ki (RXFP4 [4]; [9]): 14.8 nM
RXFP4 Activity pEC50 (RXFP4 [5]): Weak partial agonist (3)
IC50 (RXFP4 [6]; [10]): 214 nM
Emax (RXFP4 [6]): 56.2 ± 11.8%

CC[C@H](C)[C@@H]1NC(=O)[C@H](Cc2ccccc2)NC(=O)[C@H](CCC(=O)O)NC(=O)[C@H](CCCNC(=N)N)NC(=O)CNC(=O)[C@@H](NC(=O)[C@H](CC(C)C)NC(=O)[C@H](CCCNC(=N)N)NC(=O)[C@@H](NC(=O)CNC(=O)[C@H](Cc2ccc(O)cc2)NC(=O)[C@H](CCCCN)NC(=O)[C@H](C)NC(=O)[C@H](C)NC(=O)[C@@H](N)CCCNC(=N)N)C(C)C)CSSC[C@H](N)C(=O)N[C@@H]([C@@H](C)O)C(=O)N[C@@H](CC(=O)O)C(=O)NCC(=O)N[C@@H](C)C(=O)N[C@@H](CO)C(=O)N[C@@H](CCSC)C(=O)N[C@@H](CCCCN)C(=O)N[C@@H](CC(=O)O)C(=O)N[C@@H](CC(C)C)C(=O)N[C@@H](CO)C(=O)N[C@@H](C)C(=O)N[C@@H](CC(C)C)C(=O)N[C@H](C(=O)O)CSSC[C@@H](C(=O)N[C@@H](CCCNC(=N)N)C(=O)O)NC(=O)[C@H]([C@@H](C)O)NC(=O)[C@H](Cc2ccccc2)NC(=O)[C@H]([C@@H](C)CC)NC(=O)[C@H](C(C)C)NC(=O)[C@H](C)NC(=O)[C@H](CCCNC(=N)N)NC1=O [Analogue 19] (I: H-RAAKYGVRLCGREFIRAVIFTCR-OH / II: H-CTDGASMKDLSALC-OH; disulfide I:10-II:1, I:22-II:14; N-terminus assumed)
Ki (RXFP3 [1]; [7]): 7.94 nM
RXFP3 Activity pEC50 (RXFP3 [2]): No activity (3)
IC50 (RXFP3 [3]; [8]): > 10000 nM
Emax (RXFP3 [3]): 76.3 ± 1.8%
Ki (RXFP4 [4]; [9]): 10.2 nM
RXFP4 Activity pEC50 (RXFP4 [5]): Weak partial agonist (4)
IC50 (RXFP4 [6]; [10]): 79.4 nM
Emax (RXFP4 [6]): 71.3 ± 4.8%
